Experimental data reported in patent US9724335B2, “Solid dispersions of insoluble drug and preparation method thereof” (SK BIOPHARMACEUTICALS CO., LTD., priority 2012, dated 2017).
≈ marks a conversion by molar mass, not a printed value.

Tests used:
[1] = Pharmacokinetic test of the solid dispersion for a Beagle dog (oral, plasma CBI by LC-MS/MS); type: in vivo; conditions: oral 40 mg/kg in gelatin capsule, all the time zones (0-24 h), listed as CBI powder
Protocol: Just before the test, three Beagle dogs were weighed respectively. The solid dispersion of Example 3 as the test group and CBI powder as the control group each weighed in the amount corresponding to 40 mg/kg, were filled into a gelatin capsule and then orally administered. Just before and at 0.5, 1, 2, 4, 6, 8 and 24 h after administration, the blood was collected from the popliteal vein. The plasma was separated from the blood sample by centrifugation and stored/kept at −20° C. until analysis thereof. For the analysis, the plasma sample (0.5 ml) was correctly transferred to a 1.5 ml polypropylene centrifuge tube. This mixture was vortexed for 30 sec and centrifuged at 400 rpm for 10 min. The concentration of CBI in the plasma was analyzed by LC-MS/MS. […] The peak was detected by MRM (multiple reaction monitoring) method using triple-quadrupole mass spectrometry. The ionization was analyzed in the positive mode by using electrospray ionization (ESI) wherein the ion spray temperature was set up at 500° C. In the MRM method, the protonated molecular ions of CBI and the internal standard compound were monitored to have the m/z values of 325.1 and 268.0, and the product ions thus produced were monitored to have the m/z values of 91.0 and 155.0, respectively. The area under the concentration-time curve (AUC) of the drug in the plasma was calculated by the linear trapezoidal method.

[2] = Solubility of CBI in several solvents (24 h stirring at room temperature, HPLC); type: physicochemical; conditions: for solubility at 24 h: organic solvent or mixture, thermodynamic from solid
Protocol: Under several solvent conditions—i.e., distilled water, methanol, ethanol, acetone and diethyl ether—the solubility of CBI was measured. Specifically, about 5 to 40 mg of CBI was introduced into a 1.5 mL microtube, and 1 mL of the test solvent was added thereto. The mixture was slowly stirred in a rotary stirrer for 24 h under the condition of room temperature until solvent equilibrium was reached. After stirring, the suspended solution was filtered through a 0.45 micrometer membrane filter. The supernatant was collected and diluted by two-fold with the same amount of diluent for analysis. The CBI concentration was analyzed by using high-performance liquid chromatography. The column used in the present experiment was a […], 5 μm C18 column, and the mobile phase was a mixture of 35% acetonitrile, 20% methanol and 45% distilled water by volume. The flow rate was 1.0 mL/min, and the detection was performed at 255 nm. The results are shown in Table 11 wherein the values are represented as an average of three repeats ±standard deviation.

Blood CBI Concentration [1]: below the sensitivity for quantification
Solubility ([2]; Distilled Water): Not detected
solubility at 24 h ([2]; Acetone): 24800 µg/mL (≈ 76.5 mM)
solubility at 24 h ([2]; Diethyl Ether): 700 µg/mL (≈ 2.16 mM)
solubility at 24 h ([2]; Ethanol): 1500 µg/mL (≈ 4.62 mM)
solubility at 24 h ([2]; Methanol): 2500 µg/mL (≈ 7.71 mM)
Structure (SMILES): NC(=O)OCc1cc(-c2ccc(OCc3ccccc3)cc2)no1 [CBI, carbamic acid 3-(4-benzyloxy-phenyl)-isoxazol-5-ylmethyl ester]
